Two compounds from BindingDB's records for doi:10.1021/jm7011563 (University of Siena, 2008) can be followed below.

Each structure is given as a SMILES string. Where only a bound is given, the exact number is not on record here.

The target in this assay is T1, Type-1 angiotensin II receptor A (Rattus norvegicus, UniProt P25095).
T1 sequence (P25095 whole entry): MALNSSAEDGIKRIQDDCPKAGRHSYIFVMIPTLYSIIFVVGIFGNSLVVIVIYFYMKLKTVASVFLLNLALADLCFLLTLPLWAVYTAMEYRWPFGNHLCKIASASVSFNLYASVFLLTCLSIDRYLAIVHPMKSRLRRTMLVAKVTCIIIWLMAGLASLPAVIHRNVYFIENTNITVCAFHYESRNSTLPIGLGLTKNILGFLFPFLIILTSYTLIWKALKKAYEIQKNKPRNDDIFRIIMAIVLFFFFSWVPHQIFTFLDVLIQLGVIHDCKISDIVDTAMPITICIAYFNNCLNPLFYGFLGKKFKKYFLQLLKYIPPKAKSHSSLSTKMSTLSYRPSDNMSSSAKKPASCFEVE
As to the kind of experiment: Displacement of [125I]Sar1,Ile8-Ang2 from AT1 receptor in Wistar rat hepatic membrane. In general terms: Displacement assays read how much labelled ligand stays bound in the presence of the test substance.

For `CCc1c2[nH]cccc-2c(=O)n1Cc1ccc(-c2ccccc2-c2nnn[nH]2)cc1`, the IC50 (in general, the concentration at which inhibition is half-maximal) was greater than 10 µM.

For the compound `O=c1c2ccc[nH]c-2cn1Cc1ccc(-c2ccccc2-c2nnn[nH]2)cc1`, the IC50 was greater than 10 µM.
